Measurements taken from patent publication US10934282B2, “Heteroaromatic modulators of the retinoid-related orphan receptor gamma” (LEO PHARMA A/S, priority 2016, dated 2021).

Tests used:
[1] = tested on: IL-17A in Human peripheral mononuclear cells; assay: Human PBMC IL-17A assay; assay type: cell-based; conditions: 72 h, EC50, antiCD3/antiCD28-coated beads, 3 days, alpha-LISA
Procedure: This assay measures the IL-17A inhibitory potential of test compounds in Human peripheral mononuclear cells.
Peripheral blood mononuclear cells (PBMC) were isolated from human buffy coats using density grade centrifugation (Lymphoprep, Medinor), washed twice in PBS and frozen at −150° C. for later use.
Test compounds were diluted in DMSO and 70 nL of titrated test and reference compounds were transferred by the Echo liquid handling system to a 384-well assay plate in to give a final concentration of 0.1% DMSO in the wells.
The PBMC were thawed, washed and suspended in RPMI-1640 supplemented with pen/strep, glutamax and 10% bovine calf serum. The cells were mixed with antiCD3/antiCD28-coated beads (1 cells pr one bead) (Milteney T-cell expansion kit), and immediately thereafter the cells were pipetted to the plate at 130,000c/well. The plate was incubated for 3 days in humidified air/CO2 (95%/5%) On day 3 the level of IL-17A in the culture supernatant is measured using alpha-LISA kit (Perkin Elmer). Cell viability was measured by adding 6 uL pr well Prestoblue© (Life Technologies) and incubating for 2 hours followed by fluorescent measurement (Ex535/Em615). EC50 values were calculated using a 4-parameter non-linear regression curve-fitting model. Donors may be pre-screened in order to select PBMC with a high secretion of IL-17A.

[2] = target: T1, human RORgt nuclear receptor (RORgT ligand binding domain protein) (Homo sapiens, UniProt P51449); assay: ROR-gamma binding assay (Scintillation Proximity Assay, displacement of [3H]-25-hydroxycholesterol); conditions: EC50, SPA, 15 nM [3H]-25-Hydroxycholesterol, RORgT LBD 12 nM
T1 construct: purchased Proteros Biostructures GmbH
T1 sequence (P51449 with tags, fused parts or gaps): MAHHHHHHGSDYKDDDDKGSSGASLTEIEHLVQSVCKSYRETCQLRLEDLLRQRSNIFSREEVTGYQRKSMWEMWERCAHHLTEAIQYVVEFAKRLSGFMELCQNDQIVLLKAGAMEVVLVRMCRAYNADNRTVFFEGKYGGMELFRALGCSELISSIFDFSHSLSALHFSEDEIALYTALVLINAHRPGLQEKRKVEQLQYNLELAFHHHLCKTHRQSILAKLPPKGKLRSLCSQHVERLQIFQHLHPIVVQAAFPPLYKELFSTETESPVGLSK
Procedure: This assay is used to evaluate the binding affinity of compounds to the ligand-binding pocket of the human RORgt nuclear receptor based on displacement of a radio-ligand. The EC50 values are calculated using a four parameter fit. Compounds binding with high affinity to RORgt will have low EC50 values.
The assay is a Scintillation Proximity Assay (SPA) that involves competition between an unlabeled test compound and tritium-labeled 25-hydroxycholesterol for binding to RORgT ligand binding domain (LBD) protein immobilized on the surface of SPA beads. These beads contain a scintillant that emits light if excited by a radioactive particle, and this light is detected using a scintillation counter. In this assay, tritium-labelled 25-hydroxycholesterol is used as radiotracer.
400 nL of titrated test and reference compounds in DMSO were transferred by the Echo liquid handling system to a 384-well assay plate followed by addition of 5 μL [3H]-25-Hydroxycholesterol (Perkin Elmer) and 35 μL diluted RORgT LBD protein with the following amino acid sequence (HIS-FLG-tag): MAHHHHHHGSDYKDDDDKGSSGASLTEIEHLVQSVCKSYRETCQLRLEDLLRQRSNIFSREEVTGYQRKSMWEMWERCAHHLTEAIQYVVEFAKRLSGFMELCQNDQIVLLKAGAMEVVLVRMCRAYNADNRTVFFEGKYGGMELFRALGCSELISSIFDFSHSLSALHFSEDEIALYTALVLINAHRPGLQEKRKVEQLQYNLELAFHHHLCKTHRQSILAKLPPKGKLRSLCSQHVERLQIFQHLHPIVVQAAFPPLYKELFSTETESPVGLSK (SEQ ID NO: 1) (Purchased from Proteros Biostructures GmbH). After 30 min of preincubation, 40 μL of HIS-TAG PVT SPA beads (Perkin Elmer) were added. The plates were then incubated for minimum 4 hours at room temperature in darkness before measuring the SPA signal using a MicroBeta plate scintillation counter. Final assay conditions were: 50 mM HEPES pH 7.4, 150 mM NaCl, 5 mM MgCl2, 0.1% BSA, 4 μg/well HIS-TAG PVT SPA Beads, 30 ng/well RORgT LBD (equal to a final concentration of 12 nM), 15 nM [^3H]-25-Hydroxycholesterol, 0.5% DMSO and varying concentrations of test compound in a total volume of 80 μL/well. EC50 values were calculated using a 4-parameter non-linear regression curve-fitting model.

[3] = tested on: IL-17A levels in human peripheral blood; assay: tissue or blood; assay type: cell-based; conditions: 72 h, read-out: Human Whole blood IL-17A (nM)

Structure (SMILES) | EC50 [1] [nM] | EC50 [2] [nM] | EC50 [3] [nM]
Cc1cc(CN2CCN(C(=O)OC(C)C)[C@@H](C)C2)c(C)c(Nc2nnc(C[C@@H](O)C(F)(F)F)o2)c1 [Example 57, isopropyl (2S)-4-[[2,5-dimethyl-3-[[5-[(2R)-3,3,3-trifluoro-2-hydroxy-propyl]-1,3,4-oxadiazol-2-yl]amino]phenyl]methyl]-2-methyl-piperazine-1-carboxylate] | 46.5 | 23.8 | 96.7
Cc1cc(CN2CCN(C(=O)OC(C)(C)C)[C@@H](C)C2)c(C)c(Nc2nnc(-c3ccnn3C)o2)c1 [Example 31, tert-butyl (2S)-4-[[2,5-dimethyl-3-[[5-(2-methylpyrazol-3-yl)-1,3,4-oxadiazol-2-yl]amino]phenyl]methyl]-2-methyl-piperazine-1-carboxylate] | 63.5 | 32.4 | 231
Cc1c(CN2CCN(C(=O)C3CCCC3)[C@@H](C)C2)cc(Cl)cc1Nc1nnc(CC#N)o1 [Example 18, 2-[5-[5-chloro-3-[[4-(cyclopentanecarbonyl)-3-methyl-piperazin-1-yl]methyl]-2-methyl-anilino]-1,3,4-oxadiazol-2-yl]acetonitrile] | 69.8 | 21.2 | 203
CC[C@@H](C)OC(=O)N1CCN(Cc2cc(C)cc(Nc3nnc([C@H]4NCC[C@H]4O)o3)c2C)C[C@@H]1C [Example 82, [(1R)-1-methylpropyl] (2S)-4-[[3-[[5-[(2S,3R)-3-hydroxypyrrolidin-2-yl]-1,3,4-oxadiazol-2-yl]amino]-2,5-dimethyl-phenyl]methyl]-2-methyl-piperazine-1-carboxylate] | 46 | 32 | –
Cc1cc(CN2CCN(C(=O)OC(C)(C)C)[C@@H](C)C2)c(C)c(Nc2nnc([C@H]3C[C@@H](O)C3)o2)c1 [Example 29, tert-butyl (2S)-4-[[3-[[5-(3-hydroxycyclobutyl)-1,3,4-oxadiazol-2-yl]amino]-2,5-dimethyl-phenyl]methyl]-2-methyl-piperazine-1-carboxylate] | 117 | 37.8 | 422
Cc1cc(CN2CCN(C(=O)O[C@H](C)C(F)(F)F)[C@@H](C)C2)c(C)c(Nc2nnc([C@H]3NCC[C@H]3O)o2)c1 [Example 80, [(1R)-2,2,2-trifluoro-1-methyl-ethyl] (2S)-4-[[3-[[5-[(2S,3R)-3-hydroxypyrrolidin-2-yl]-1,3,4-oxadiazol-2-yl]amino]-2,5-dimethyl-phenyl]methyl]-2-methyl-piperazine-1-carboxylate] | 70 | 22.3 | –
Cc1c(CN2CCN(C(=O)OCC(F)(F)F)[C@@H](C)C2)cc(Cl)cc1Nc1nnc(CC#N)o1 [Example 69, 2,2,2-trifluoroethyl (2S)-4-[[5-chloro-3-[[5-(cyanomethyl)-1,3,4-oxadiazol-2-yl]amino]-2-methyl-phenyl]methyl]-2-methyl-piperazine-1-carboxylate] | 308 | 70 | –
Cc1cc(CN2CCN(C(=O)OC(C)(C)C)[C@@H](C)C2)c(C)c(Nc2nnc([C@H](C)O)o2)c1 [Example 28, tert-butyl (2S)-4-[[3-[[5-[(1S)-1-hydroxyethyl]-1,3,4-oxadiazol-2-yl]amino]-2,5-dimethyl-phenyl]methyl]-2-methyl-piperazine-1-carboxylate] | 107 | 35.5 | –
Cc1c(CN2CCN(C(=O)c3ccccc3)[C@@H](C)C2)cc(Cl)cc1Nc1nnc(C#N)o1 [Example 1, 5-[3-[[(3S)-4-benzoyl-3-methyl-piperazin-1-yl]methyl]-5-chloro-2-methyl-anilino]-1,3,4-oxadiazole-2-carbonitrile] | 3030 | 40.2 | –
Cc1cc(CN2CCN(C(=O)OCC(F)(F)F)[C@@H](C)C2)c(C)c(Nc2nnc([C@H]3NCC[C@H]3O)o2)c1 [Example 81, 2,2,2-trifluoroethyl (2S)-4-[[3-[[5-[(2S,3R)-3-hydroxypyrrolidin-2-yl]-1,3,4-oxadiazol-2-yl]amino]-2,5-dimethyl-phenyl]methyl]-2-methyl-piperazine-1-carboxylate] | 1520 | 110 | –
